Measured values taken from patent US5668134A, “Method for preventing or reducing photosensitivity and/or phototoxicity reactions to medications” (priority 1994, dated 1997).
“And” between values parts separate entries of the source, which are not always exact repeats. Equal values may be shown once. Where a name gives a salt, the structure may show the parent alone.

Test system: skin of healthy volunteers
Assay: Example 5: severity of radiation-induced photoreactions (edema or blisters)
[1] = UVA & UVB, a.m., 3 h post-radiation
[2] = UVA & UVB, a.m., 6 h post-radiation
[3] = UVA & UVB, a.m., 24 h post-radiation
[4] = UVA & UVB, a.m., 48 h post-radiation
[5] = UVA & UVB, a.m., 72 h post-radiation
[6] = UVA & UVB, p.m., 0 h post-radiation
[7] = UVA & UVB, p.m., 3 h post-radiation
[8] = UVA & UVB, p.m., 6 h post-radiation
[9] = UVA & UVB, p.m., 24 h post-radiation
[10] = UVA & UVB, p.m., 48 h post-radiation
[11] = UVA & UVB, p.m., 72 h post-radiation

Experimental: The number of skin patches with edema, or local swelling of the skin surface, were also counted. MEDs were measured separately for UVA and UVB radiation, and for UVA radiation alone. The baseline MED was defined in the manner described hereinabove. The 24 hour evaluation was allowed to be performed in the morning of Study Day 1. Severity of reactions causing edema and/or blisters were graded under the following grading system:
Severity was assessed by comparing the numbers of subjects with responses graded as 2 (edema) or 3 (blisters).

CCn1cc(C(=O)O)c(=O)c2cc(F)c(N3CCNC(C)C3)c(F)c21 (racemic) [lomefloxacin HCl, monohydrochloride salt of (±)-1-ethyl-6,8-difluoro-1,4-dihydro-7-(3-methyl-1-piperazinyl)-4-oxo-3-quinolinecarboxylic acid]
2 subjects: NUMBER OF SUBJECTS WITH SCORE >= 2, COUNT [2] | NUMBER OF SUBJECTS WITH SCORE >= 2, COUNT (UVA, a.m., 48 h post-radiation)
6 subjects: NUMBER OF SUBJECTS WITH SCORE >= 2, COUNT (UVA, a.m., 3 h post-radiation)
7.69%: SUBJECTS WITH SCORE >= 2, PERCENT [9] | SUBJECTS WITH SCORE >= 2, PERCENT (UVA, a.m., 0 h post-radiation)
38.46%: SUBJECTS WITH SCORE >= 2, PERCENT (UVA, a.m., 24 h post-radiation)
9 subjects: NUMBER OF SUBJECTS WITH SCORE >= 2, COUNT (UVA, a.m., 6 h post-radiation)
15.38%: SUBJECTS WITH SCORE >= 2, PERCENT [2] | SUBJECTS WITH SCORE >= 2, PERCENT (UVA, a.m., 48 h post-radiation)
69.23% and 69%: SUBJECTS WITH SCORE >= 2, PERCENT (UVA, a.m., 6 h post-radiation)
0.00%: SUBJECTS WITH SCORE >= 2, PERCENT [1] | SUBJECTS WITH SCORE >= 2, PERCENT [3] | SUBJECTS WITH SCORE >= 2, PERCENT [4] | SUBJECTS WITH SCORE >= 2, PERCENT [5] | SUBJECTS WITH SCORE >= 2, PERCENT [6] | SUBJECTS WITH SCORE >= 2, PERCENT [7] | SUBJECTS WITH SCORE >= 2, PERCENT [8] | SUBJECTS WITH SCORE >= 2, PERCENT [10] | SUBJECTS WITH SCORE >= 2, PERCENT [11] | SUBJECTS WITH SCORE >= 2, PERCENT (UVA, a.m., 72 h post-radiation) | SUBJECTS WITH SCORE >= 2, PERCENT (UVA, p.m., 0 h post-radiation) | SUBJECTS WITH SCORE >= 2, PERCENT (UVA, p.m., 3 h post-radiation) | SUBJECTS WITH SCORE >= 2, PERCENT (UVA, p.m., 6 h post-radiation) | SUBJECTS WITH SCORE >= 2, PERCENT (UVA, p.m., 24 h post-radiation) | SUBJECTS WITH SCORE >= 2, PERCENT (UVA, p.m., 48 h post-radiation) | SUBJECTS WITH SCORE >= 2, PERCENT (UVA, p.m., 72 h post-radiation)
0 subjects: NUMBER OF SUBJECTS WITH SCORE >= 2, COUNT [1] | NUMBER OF SUBJECTS WITH SCORE >= 2, COUNT [3] | NUMBER OF SUBJECTS WITH SCORE >= 2, COUNT [4] | NUMBER OF SUBJECTS WITH SCORE >= 2, COUNT [5] | NUMBER OF SUBJECTS WITH SCORE >= 2, COUNT [6] | NUMBER OF SUBJECTS WITH SCORE >= 2, COUNT [7] | NUMBER OF SUBJECTS WITH SCORE >= 2, COUNT [8] | NUMBER OF SUBJECTS WITH SCORE >= 2, COUNT [10] | NUMBER OF SUBJECTS WITH SCORE >= 2, COUNT [11] | NUMBER OF SUBJECTS WITH SCORE >= 2, COUNT (UVA, a.m., 72 h post-radiation) | NUMBER OF SUBJECTS WITH SCORE >= 2, COUNT (UVA, p.m., 0 h post-radiation) | NUMBER OF SUBJECTS WITH SCORE >= 2, COUNT (UVA, p.m., 3 h post-radiation) | NUMBER OF SUBJECTS WITH SCORE >= 2, COUNT (UVA, p.m., 6 h post-radiation) | NUMBER OF SUBJECTS WITH SCORE >= 2, COUNT (UVA, p.m., 24 h post-radiation) | NUMBER OF SUBJECTS WITH SCORE >= 2, COUNT (UVA, p.m., 48 h post-radiation) | NUMBER OF SUBJECTS WITH SCORE >= 2, COUNT (UVA, p.m., 72 h post-radiation)
1 subjects: NUMBER OF SUBJECTS WITH SCORE >= 2, COUNT [9] | NUMBER OF SUBJECTS WITH SCORE >= 2, COUNT (UVA, a.m., 0 h post-radiation)
46.15%: SUBJECTS WITH SCORE >= 2, PERCENT (UVA, a.m., 3 h post-radiation)
5 subjects: NUMBER OF SUBJECTS WITH SCORE >= 2, COUNT (UVA, a.m., 24 h post-radiation)
